# Values quoted from earlier work as cited in KR20220033790A, “장 정결용 조성물” (강윤식, priority 2020, dated 2022).
# Tested on: blood glucose (혈당)
# Details: scale 0-100, glucose = 100 at 2 h after intake; background statement
row,Structure (SMILES),Glycemic index (GI)
1,OC[C@@H](O)[C@@H](O)[C@H](O)[C@@H](O)CO.OC[C@@H](O)[C@@H](O)[C@H](O)[C@@H](O)CO [소르비톨],4
2,OC[C@@H](O)[C@H](O)[C@@H](O)CO [자일리톨],14
